Test [1] concerns MHC class II antigens (HLA-DR, DP, and DQ). In words: Flow cytometry of IFN-gamma-inducible MHC class II antigens in stably transfected HeLa cells. Format: cell-based, human. The following applies: HeLa cells stably expressing the peptide; any dose of IFN-gamma up to 1000 U/ml, 42 h; vs vector-transfected control cells. The procedure: (§1) For this reason the function of the cloned cDNA was tested directly using pools of stably transfected HeLa cells. Expression of three families of endogenous IFN-gamma-responsive genes in this reporter cell line was determined by flow cytometry using monoclonal antibodies that recognize MHC class II antigens (HLA-DR, DP, and DQ alpha chains), MHC class I heavy chains (HLA-A, B, and C ), and ICAM-1 antigen.
(§2) The hPL(1-28)-encoding cDNA was subcloned into the mammalian expression vector pSH4-hphm using standard methods. HeLa cells (100 mm dishes) were transfected with […] of HPL(1-28)-pSH4-hph^m DNA or empty vector (negative control) by calcium phosphate-mediated transfection. Stable transfectants were selected with hygromycin at […] for at least 16 days. Flow cytometric analysis was performed on stably transfected pools of cells that were treated in culture with IFN-gamma (0, 20, 66, 200, and 1000 U/ml) for 42 h and suspended for analysis by light trypsinization. […] Antibody binding was detected with FITC-goat anti-mouse antibody (Biomeda), and 20,000 cells were analyzed with a FACScan (Becton-Dickinson).
(In general: In flow cytometry, cells or beads pass a laser one at a time.)

For test [2], the system named is MHC class I antigens (HLA-A, B, and C). In words: Flow cytometry of constitutive and IFN-gamma-inducible MHC class I antigens in stably transfected HeLa cells. The following applies: HeLa cells stably expressing the peptide. Format: cell-based, human. The protocol:
as §1, §2

The subject of the next test is ICAM-1 antigen. In words: Flow cytometry of ICAM-1 antigen in stably transfected HeLa cells. In kind it is cell-based, human. The following applies: HeLa cells stably expressing the peptide. The procedure:
as §1
The hPL(1-28)-encoding cDNA was subcloned into the mammalian expression vector pSH4-hphm using standard methods. HeLa cells (100 mm dishes) were transfected with […] of HPL(1-28)-pSH4-hph^m DNA or empty vector (negative control) by calcium phosphate-mediated transfection. Stable transfectants were selected with hygromycin at […] for at least 16 days. Flow cytometric analysis was performed on stably transfected pools of cells that were treated in culture with IFN-gamma (0, 20, 66, 200, and 1000 U/ml) for 42 h and suspended for analysis by light trypsinization. Cells were stained at 4° C. with 10 µg/ml solutions of mAb CR 3/43 (Dako) specific for MHC class II antigens HLA-DP, HLA-DQ, and HLA-DR, mAb G46-2.6 (Pharmingen) specific for MHC class I antigens HLA-A, HLA-B, and HLA-C heavy chains, mAb HA58 (Pharmingen) specific for ICAM-1 antigen, and either non-immune mouse IgG1 or IgG2a as negative control. Antibody binding was detected with FITC-goat anti-mouse antibody (Biomeda), and 20,000 cells were analyzed with a FACScan (Becton-Dickinson).

The conditions of test [3]: intravenous insulin tolerance test; cited from earlier work.
The conditions of test [4]: glucose-dependent manner; cited from earlier work.
For the next test, the target named is insulin receptor (Homo sapiens, UniProt P06213). The following applies: isolated cells; cited from earlier work.
Test [5] relates to bovine brain capillary endothelial cell (BBCE). The following applies: cited from earlier work.
A further test concerns the target T1, hGH receptor (Homo sapiens, UniProt P10912).
T1 sequence (P10912 19-638): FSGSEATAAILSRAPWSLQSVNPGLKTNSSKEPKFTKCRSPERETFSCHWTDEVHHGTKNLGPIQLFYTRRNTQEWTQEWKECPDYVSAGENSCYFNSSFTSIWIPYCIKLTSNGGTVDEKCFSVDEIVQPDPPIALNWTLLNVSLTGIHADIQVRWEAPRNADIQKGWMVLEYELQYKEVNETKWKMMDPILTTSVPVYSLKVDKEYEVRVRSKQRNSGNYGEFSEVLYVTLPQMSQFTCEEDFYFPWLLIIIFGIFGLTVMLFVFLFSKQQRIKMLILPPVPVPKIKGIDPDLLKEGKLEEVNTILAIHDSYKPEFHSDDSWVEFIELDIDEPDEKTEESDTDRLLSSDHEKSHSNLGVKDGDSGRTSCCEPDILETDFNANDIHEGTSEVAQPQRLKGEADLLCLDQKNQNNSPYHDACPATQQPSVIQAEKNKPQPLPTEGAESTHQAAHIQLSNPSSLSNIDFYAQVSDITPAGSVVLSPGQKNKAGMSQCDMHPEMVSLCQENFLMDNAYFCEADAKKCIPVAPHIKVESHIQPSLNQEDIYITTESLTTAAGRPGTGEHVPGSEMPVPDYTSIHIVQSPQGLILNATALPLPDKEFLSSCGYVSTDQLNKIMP
The settings on record: relative to hGH; cited from earlier work.

Test [6] deals with peripheral blood T-lymphocyte. The settings on record: in vitro; exogenous full-length hormone; cited from earlier work.
A further test deals with tonsil B-lymphocyte. The following applies: in vitro; exogenous full-length hormone; cited from earlier work.

With “VQTVPLSRLFDHAMLQAHRAHQLAIDTY (VQTVPLSRLFKEAMLQAHRAHQLAIDTY; HOMO SAPIENS; hPL(1-28) peptide) [isolated peptide, N-terminal 28 residues of secreted human placental lactogen; tested as product of transfected cDNA]”, in test [1], the “levels of HLA-DR, DP, and DQ antigens after IFN-gamma treatment” value was “not increased”. Also, in test [2] (IFN-gamma treatment 42 h), the “IFN-gamma-induced high level expression of class I genes” value is “did not induce high level expression”. Also, the “constitutive expression of MHC class I genes (HLA-A, B, and C antigens)” value in test [2] (absence of IFN-gamma) is on record as “not reduced”. In addition, the “fraction of ICAM-1 high-level positive cells” value in the test on ICAM-1 antigen (20 U/ml of IFN-gamma) is “less”; in the test with ICAM-1 antigen (higher doses of IFN-gamma (above 20 U/ml)), “still lower”. The “cells expressing ICAM-1 at high level” value in the test with ICAM-1 antigen (absence of IFN-gamma treatment) is given as “More than 50%”.
As for “hGH(6-13): octapeptide representing residues 6-13 of hGH (LSRLFDNA; UniProt P01241 32-39, looked up, fragment)”, the hypoglycemic activity result in [3] is “hypoglycemic activity”. Moreover, the insulin secretion entry in [4] was “augmented”. Moreover, the “binding of insulin to insulin receptor” value in the test with insulin receptor was “increased”.

B1: hPRL: Human prolactin (protein, UniProt P01236 29-227, looked up)
Prolactin: LPICPGGAARCQVTLRDLFDRAVVLSHYIHNLSSEMFSEFDKRYTHGRGFITKAINSCHTSSLATPEDKEQAQQMNQKDFLSLIVSILRSWNEPLYHLVTEVRGMQEAPEAILSKAVEIEEQTKRLLEGMELIVSQVHPETKENEIYPVWSGLPSLQMADEESRLSAYYNLLHCLRRDSHKIDNYLKLLKCRIIHNNNC
In the case of B1, the “effect on bFGF-induced BBCE cell proliferation” value in [5] is “no significant additive somatotropic effect”.

B2: hPL: full-length human placental lactogen, mature polypeptide encoded by hPL-3 and hPL-4 genes (protein, UniProt P0DML2 27-217, looked up)
Chorionic somatomammotropin …: VQTVPLSRLFDHAMLQAHRAHQLAIDTYQEFEETYIPKDQKYSFLHDSQTSFCFSDSIPTPSNMEETQQKSNLELLRISLLLIESWLEPVRFLRSMFANNLVYDTSDSDDYHLLKDLEEGIQTLMGRLEDGSRRTGQILKQTYSKFDTNSHNHDALLKNYGLLYCFRKDMDKVETFLRMVQCRSVEGSCGF
Regarding B2, the “binding to the hGH receptor, weaker than hGH” value with hGH receptor is 2300 fold. The “peripheral blood T-lymphocyte mitogenic response to phytohemagglutinin” value in test [6] is “reduced”. Besides, in the test with tonsil B-lymphocyte, the “tonsil B-lymphocyte mitogenic response to lipopolysaccharide” value was “reduced”. For the same molecule, the “effect on bFGF-induced BBCE cell proliferation” value in test [5] is on record as “no significant additive somatotropic effect”.

These data come from patent US20020032154A1, “Interferon-suppressing placental lactogen peptides” (priority 2000, published 2002).
